US5093339A, “Pyrano[f]quinoline derivatives and pharmaceutical compositions containing the same” (Kodama Kabushiki Kaisha, priority 1988, dated 1992)
Read-outs that look alike come from different tables or passages of the source.

Experiments:
[1] = test system: platelet plasma (platelet-rich plasma of rabbit); test: Platelet aggregation inhibitory action (Test Example 1), rabbit platelet plasma, aggregation by ADP, PAF, AA or collagen; assay type: cell-based
Description: For evaluating the platelet aggregation inhibitory action of the present compounds, platelet plasma containing 5×10^5 of platelets in 1 μl of plasma was prepared by appropriately mixing platelet-rich plasma (PRP) of rabbit with platelet-poor plasma (PPP). By using the platelet plasma, the present compounds were measured on 50% inhibitory efficacy (IC 50) against each of platelet aggregation accelerators, 10 μM of adenosine diphosphate (ADP), 0.01 μg/ml of platelet activation factor (PAF), 300 μM of arachidonic acid (AA) and 30 μg/ml of collagen.

[2] = Acute toxicity test (Test Example 4); settings: in vivo; oral administration to mouse, suspended in carboxymethyl cellulose; read-out: LD50, 50% lethal dose
Description: Each of the present compounds suspended in a carboxymethyl cellulose was administered orally to a mouse and a 50% lethal dose (LD50) was measured. There was not observed any dead mouse even with the administration as high as 2,000 mg/Kg.

carotid blood-flow = test: Blood-flow increasing action (Test Example 3), carotid; assay type: in vivo, dog; settings: Canis lupus familiaris, iv; dogs, i.v., dissolved in dimethylsulfoxide; read-out: Carotid blood-flow increasing action (ED30), dose required to increase the blood-flow in the carotid by 30%
Description: In order to evaluate the blood-flow increasing action of the present compounds, each of the compounds was dissolved in dimethylsulfoxide and administered intravenously to dogs. After administration, a dose required to increase the blood-flow in the carotid by 30% was determined.

blood pressure = test: Blood pressure-reducing action (Test Example 2); assay type: in vivo, dog; settings: dogs, i.v., dissolved in dimethylsulfoxide; for ED20: Canis lupus familiaris, iv, read-out: ED20, dose effective to reduce the blood pressure by 20%
Description: In order to evaluate the blood pressure-reducing action of the present compounds, each of the compounds was dissolved in dimethylsulfoxide and administered intravenously to dogs. After administration, a dose of the compound effective to reduce the blood pressure by 20% (ED20 :mg/Kg) was measured.

[3] = Oryctolagus cuniculus, 0.01 μg/ml platelet activation factor (PAF), read-out: 50% inhibitory efficacy (IC 50), PAF, Coagulant (ID50)
[4] = Oryctolagus cuniculus, 10 μM adenosine diphosphate (ADP), read-out: 50% inhibitory efficacy (IC 50), ADP, Coagulant (ID50)
[5] = Oryctolagus cuniculus, 30 μg/ml collagen, read-out: 50% inhibitory efficacy (IC 50), Collagen, Coagulant (ID50)
[6] = Oryctolagus cuniculus, 300 μM arachidonic acid (AA), read-out: 50% inhibitory efficacy (IC 50), AA, Coagulant (ID50)

Compound	IC50 [1, 3] [µM]	IC50 [1, 4] [µM]	IC50 [1, 5] [µM]	IC50 [1, 6] [µM]	IC50 ([1]; 0.01 μg/ml platelet activation factor (PAF), read-out: 50% inhibitory efficacy (IC 50), PAF, Coagulant (ID50)) [µM]	IC50 ([1]; 10 μM adenosine diphosphate (ADP), read-out: 50% inhibitory efficacy (IC 50), ADP, Coagulant (ID50)) [µM]	IC50 ([1]; 30 μg/ml collagen, read-out: 50% inhibitory efficacy (IC 50), Collagen, Coagulant (ID50)) [µM]	IC50 ([1]; 300 μM arachidonic acid (AA), read-out: 50% inhibitory efficacy (IC 50), AA, Coagulant (ID50)) [µM]	LD50 [2] [mg/kg]	ED30 (carotid blood-flow) [mg/kg]	ED20 (blood pressure) [mg/kg]	ED20, dose effective to reduce the blood pressure by 20% (blood pressure) [mg/kg]
O=c1ccc2c3c(ccc2[nH]1)OCCC3 [Preparation Example 5, 1,2,3,3-tetrahydro-3H-pyrano-[3,2-f]quinoline-8(7H)-one]	8	3	6	4					≥ 2000	0.0094	1.6	
3,3-dimethyl-1-hydroxy-3H-pyrano [3,2-f]quinoline-8(7H)-one [Preparation Example 9]					45	30	30	21				1.5
O=c1ccc2c3c(ccc2[nH]1)OCC(O)C3 (stereo not shown) [Preparation Example 6, 2-hydroxy-1,2,3,3-tetrahydro-3H-pyrano [3,2-f]quinoline-8(7H)-one]	47	30	25	21					≥ 2000	0.19	1.5	
CC1CCc2c(ccc3[nH]c(=O)ccc23)O1 (stereo not shown) [Preparation Example 1, 3-methyl-1,2-dihydro-3H-pyrano[3,2-f]quinoline-8(7H)-one]	8	5	5	3							1.2	

Further lines, with some results ahead:

IC50 [1, 3] [µM]	IC50 [1, 4] [µM]	IC50 [1, 5] [µM]	IC50 [1, 6] [µM]	IC50 ([1]; 0.01 μg/ml platelet activation factor (PAF), read-out: 50% inhibitory efficacy (IC 50), PAF, Coagulant (ID50)) [µM]	IC50 ([1]; 10 μM adenosine diphosphate (ADP), read-out: 50% inhibitory efficacy (IC 50), ADP, Coagulant (ID50)) [µM]	IC50 ([1]; 30 μg/ml collagen, read-out: 50% inhibitory efficacy (IC 50), Collagen, Coagulant (ID50)) [µM]	IC50 ([1]; 300 μM arachidonic acid (AA), read-out: 50% inhibitory efficacy (IC 50), AA, Coagulant (ID50)) [µM]	Compound	LD50 [2] [mg/kg]	ED30 (carotid blood-flow) [mg/kg]	ED20 (blood pressure) [mg/kg]	ED20, dose effective to reduce the blood pressure by 20% (blood pressure) [mg/kg]
25	30	20	18					O=c1ccc2c3c(ccc2[nH]1)OCC=C3 [Preparation Example 4, 3,3-dihydro-3H-pyrano[3,2-f]quinoline-8(7H)-one]		0.066	0.5	
6	5	7	5					CC1(C)CCc2c(ccc3[nH]c(=O)ccc23)O1 [Preparation Example 2, 3,3-dimethyl-1,2-dihydro-3H-pyrano[3,2-f]quinoline-8(7H)-one]		0.009	1.2	
21	20	13	13					CC1(C)Oc2ccc3[nH]c(=O)ccc3c2CC1O (stereo not shown) [Preparation Example 7, 3,3-dimethyl-1,2-hydroxy-1,2-dihydro-3 H-pyrano[3,2-f]quinoline-8(7H)-one]			1.6	
22	20	21	16					CC1(C)CCc2c(ccc3c2CCC(=O)N3)O1 [Preparation Example 3, 3,3-dimethyl-1,2,9,10-tetrahydro-3H-pyrano [3,2-f]quinoline-8(7H)-one]		0.03	0.4	
25	20	18	18					O=c1ccc2c3c(ccc2[nH]1)OCCC3O (stereo not shown) [Preparation Example 8, 1-hydroxy-1,2,3,3-tetrahydro-3H-pyrano[3,2-f]quinoline-8(7H)-one]			1.8	
